Assay results taken from ChEMBL document CHEMBL1201862, “PubChem BioAssay data set” (2004).
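Test compounds were applied to cells in 96-well plates for 48 hours at 5 doses. At the GI50, growth is halved.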 Calls of active or inactive are those of the source. Cut-off read from the data, not from the text of the source: active = GI50 up to about 1.1 µM and inactive = higher.

Columns and labels:
Assay in all cases: growth of human tumour cells (NCI), 48 h
HCT-116 = tested on: HCT-116
M14 = tested on: M14
K562 = tested on: K562
SK-OV-3 = tested on: SK-OV-3
LXFL 529 = tested on: LXFL 529
U-251 = tested on: U-251
DMS-273 = tested on: DMS-273
A549 = tested on: A549
NCI-H460 = tested on: NCI-H460
DLD-1 = tested on: DLD-1
HCT-15 = tested on: HCT-15
NCI-H226 = tested on: NCI-H226
SNB-19 = tested on: SNB-19
MOLT-4 = tested on: MOLT-4
HL-60 = tested on: HL-60
UACC-257 = tested on: UACC-257
ACHN = tested on: ACHN
HOP-92 = tested on: HOP-92
HOP-18 = tested on: HOP-18
HOP-62 = tested on: HOP-62
HCC 2998 = tested on: HCC 2998
Malme-3M = tested on: Malme-3M
TK-10 = tested on: TK-10
SK-MEL-5 = tested on: SK-MEL-5
SW-620 = tested on: SW-620
SR = tested on: SR
RPMI-8226 = tested on: RPMI-8226
SF-539 = tested on: SF-539
SK-MEL-2 = tested on: SK-MEL-2
HT-29 = tested on: HT-29
SN12C = tested on: SN12C
OVCAR-4 = tested on: OVCAR-4
OVCAR-5 = tested on: OVCAR-5
IGROV-1 = tested on: IGROV-1
A498 = tested on: A498
KM-20L2 = tested on: KM-20L2
UACC-62 = tested on: UACC-62
SNB-75 = tested on: SNB-75
NCI-H23 = tested on: NCI-H23
SF-295 = tested on: SF-295
M19-MEL = tested on: M19-MEL
UO-31 = tested on: UO-31
EKVX = tested on: EKVX
SNB-78 = tested on: SNB-78
OVCAR-3 = tested on: OVCAR-3
CCRF-CEM = tested on: CCRF-CEM
XF498 = tested on: XF498
786-0 = tested on: 786-0
DMS-114 = tested on: DMS-114
OVCAR-8 = tested on: OVCAR-8
SK-MEL-28 = tested on: SK-MEL-28
COLO 205 = tested on: COLO 205
KM12 = tested on: KM12
RXF 393 = tested on: RXF 393
SF-268 = tested on: SF-268
LOX IMVI = tested on: LOX IMVI
RXF 631 = tested on: RXF 631
NCI-H522 = tested on: NCI-H522
CAKI-1 = tested on: CAKI-1

CN(C)CCNC(=O)c1c2ccccc2cc2ccccc12
GI50 (HCT-116): 26.8 µM (inactive)
GI50 (M14): 16.7 µM (inactive)
GI50 (K562): 23.2 µM (inactive)
GI50 (SK-OV-3): > 100 µM (inactive)
GI50 (LXFL 529): 26.2 µM (inactive)
GI50 (U-251): 41.3 µM (inactive)
GI50 (DMS-273): 33 µM (inactive)
GI50 (A549): 34.6 µM (inactive)
GI50 (NCI-H460): 18.1 µM (inactive)
GI50 (DLD-1): 41.8 µM (inactive)
GI50 (HCT-15): 36 µM
GI50 (NCI-H226): 12 µM (inactive)
GI50 (SNB-19): > 100 µM (inactive)
GI50 (MOLT-4): 3.99 µM (inactive)
GI50 (HL-60): 25.4 µM (inactive)
GI50 (UACC-257): 18.5 µM (inactive)
GI50 (ACHN): 32.4 µM (inactive)
GI50 (HOP-92): 60.4 µM (inactive)
GI50 (HOP-18): > 100 µM (inactive)
GI50 (HOP-62): 55.7 µM (inactive)
GI50 (HCC 2998): 32.7 µM (inactive)
GI50 (Malme-3M): 34.1 µM (inactive)
GI50 (TK-10): 30.5 µM (inactive)
GI50 (SK-MEL-5): 16.9 µM (inactive)
GI50 (SW-620): 34.4 µM (inactive)
GI50 (SR): 0.473 µM (active)
GI50 (RPMI-8226): 17.5 µM (inactive)
GI50 (SF-539): 32.7 µM (inactive)
GI50 (SK-MEL-2): 8 µM (inactive)
GI50 (HT-29): 39.1 µM (inactive)
GI50 (SN12C): 34.4 µM (inactive)
GI50 (OVCAR-4): 31 µM (inactive)
GI50 (OVCAR-5): 50.9 µM (inactive)
GI50 (IGROV-1): 41 µM (inactive)
GI50 (A498): 31.5 µM (inactive)
GI50 (KM-20L2): 37.7 µM (inactive)
GI50 (UACC-62): 20 µM (inactive)
GI50 (SNB-75): 42.9 µM (inactive)
GI50 (NCI-H23): 41.4 µM (inactive)
GI50 (SF-295): 61.2 µM (inactive)
GI50 (M19-MEL): 33.2 µM (inactive)
GI50 (UO-31): 26.2 µM (inactive)
GI50 (EKVX): > 100 µM (inactive)
GI50 (SNB-78): 55.3 µM (inactive)
GI50 (OVCAR-3): 93.8 µM (inactive)
GI50 (CCRF-CEM): 31.1 µM (inactive)
GI50 (XF498): 19.5 µM (inactive)
GI50 (786-0): 57 µM (inactive)
GI50 (DMS-114): 53.1 µM (inactive)
GI50 (OVCAR-8): 38.1 µM (inactive)
GI50 (SK-MEL-28): 25.5 µM (inactive)
GI50 (COLO 205): 18.2 µM (inactive)
GI50 (KM12): 42.8 µM (inactive)
GI50 (RXF 393): 25.3 µM (inactive)
GI50 (SF-268): 44.7 µM (inactive)
GI50 (LOX IMVI): 13.5 µM (inactive)

O=C(c1ccc(Cl)cc1Cl)N(/N=C/C=C/c1ccccc1)c1nnc(-c2ccccc2)c(-c2ccccc2)n1
GI50 (K562): > 100 µM (inactive)
GI50 (SK-OV-3): > 100 µM (inactive)
GI50 (U-251): > 100 µM (inactive)
GI50 (DMS-273): > 100 µM (inactive)
GI50 (A549): > 100 µM (inactive)
GI50 (NCI-H460): > 100 µM (inactive)
GI50 (DLD-1): > 100 µM (inactive)
GI50 (HCT-15): > 100 µM
GI50 (NCI-H226): > 100 µM (inactive)
GI50 (SNB-19): > 100 µM (inactive)
GI50 (MOLT-4): 70 µM (inactive)
GI50 (HL-60): > 100 µM (inactive)
GI50 (UACC-257): > 100 µM (inactive)
GI50 (ACHN): > 100 µM (inactive)
GI50 (RXF 631): > 100 µM (inactive)
GI50 (HOP-62): > 100 µM (inactive)
GI50 (HCC 2998): > 100 µM (inactive)
GI50 (Malme-3M): > 100 µM (inactive)
GI50 (TK-10): > 100 µM (inactive)
GI50 (SK-MEL-5): > 100 µM (inactive)
GI50 (SW-620): > 100 µM (inactive)
GI50 (RPMI-8226): 37.5 µM (inactive)
GI50 (SF-539): > 100 µM (inactive)
GI50 (SK-MEL-2): > 100 µM (inactive)
GI50 (HT-29): > 100 µM (inactive)
GI50 (SN12C): > 100 µM (inactive)
GI50 (OVCAR-4): > 100 µM (inactive)
GI50 (OVCAR-5): > 100 µM (inactive)
GI50 (IGROV-1): > 100 µM (inactive)
GI50 (A498): > 100 µM (inactive)
GI50 (KM-20L2): > 100 µM (inactive)
GI50 (UACC-62): > 100 µM (inactive)
GI50 (SNB-75): > 100 µM (inactive)
GI50 (NCI-H23): > 100 µM (inactive)
GI50 (SF-295): > 100 µM (inactive)
GI50 (M19-MEL): > 100 µM (inactive)
GI50 (UO-31): 76.4 µM (inactive)
GI50 (NCI-H522): 21.8 µM (inactive)
GI50 (EKVX): > 100 µM (inactive)
GI50 (SNB-78): > 100 µM (inactive)
GI50 (OVCAR-3): > 100 µM (inactive)
GI50 (CCRF-CEM): > 100 µM (inactive)
GI50 (XF498): > 100 µM (inactive)
GI50 (786-0): > 100 µM (inactive)
GI50 (DMS-114): > 100 µM (inactive)
GI50 (OVCAR-8): > 100 µM (inactive)
GI50 (SK-MEL-28): > 100 µM (inactive)
GI50 (COLO 205): > 100 µM (inactive)
GI50 (KM12): > 100 µM (inactive)
GI50 (RXF 393): > 100 µM (inactive)
GI50 (SF-268): > 100 µM (inactive)
GI50 (LOX IMVI): > 100 µM (inactive)

COc1cc(C2c3cc4c(cc3[C@@H](N(C)C)[C@H]3COC(=O)C23)OCO4)cc(OC)c1O (stereo partly specified)
GI50 (HCT-116): 38 µM (inactive)
GI50 (M14): 31 µM (inactive)
GI50 (K562): 27.3 µM (inactive)
GI50 (SK-OV-3): 37 µM (inactive)
GI50 (LXFL 529): 35.2 µM (inactive)
GI50 (U-251): 34 µM (inactive)
GI50 (DMS-273): 32.5 µM (inactive)
GI50 (A549): 45.9 µM (inactive)
GI50 (NCI-H460): 31.2 µM (inactive)
GI50 (DLD-1): 41.9 µM (inactive)
GI50 (HCT-15): 31.1 µM
GI50 (NCI-H226): > 100 µM (inactive)
GI50 (MOLT-4): 38.2 µM (inactive)
GI50 (HL-60): 33.4 µM (inactive)
GI50 (UACC-257): 67.9 µM (inactive)
GI50 (ACHN): 41.5 µM (inactive)
GI50 (HOP-92): 11.2 µM (inactive)
GI50 (RXF 631): 42.2 µM (inactive)
GI50 (HOP-62): 50.4 µM (inactive)
GI50 (HCC 2998): 53.6 µM (inactive)
GI50 (Malme-3M): 37.7 µM (inactive)
GI50 (TK-10): > 100 µM (inactive)
GI50 (SK-MEL-5): 23.7 µM (inactive)
GI50 (SW-620): 38.1 µM (inactive)
GI50 (SR): 54.5 µM (inactive)
GI50 (RPMI-8226): 92.3 µM (inactive)
GI50 (SF-539): 21 µM (inactive)
GI50 (SK-MEL-2): 33.4 µM (inactive)
GI50 (HT-29): 34.4 µM (inactive)
GI50 (SN12C): 51.4 µM (inactive)
GI50 (OVCAR-4): 42.9 µM (inactive)
GI50 (OVCAR-5): > 100 µM (inactive)
GI50 (IGROV-1): 72.1 µM (inactive)
GI50 (A498): 23.3 µM (inactive)
GI50 (KM-20L2): 23.4 µM (inactive)
GI50 (UACC-62): 33.7 µM (inactive)
GI50 (SNB-75): 93.3 µM (inactive)
GI50 (NCI-H23): 37.7 µM (inactive)
GI50 (SF-295): > 10 µM (inactive)
GI50 (UO-31): > 100 µM (inactive)
GI50 (NCI-H522): 4.4 µM (inactive)
GI50 (EKVX): 64.4 µM (inactive)
GI50 (CCRF-CEM): 49.1 µM (inactive)
GI50 (XF498): 45 µM (inactive)
GI50 (786-0): 33.2 µM (inactive)
GI50 (CAKI-1): 23.7 µM (inactive)
GI50 (OVCAR-8): 25.5 µM (inactive)
GI50 (SK-MEL-28): 14.5 µM (inactive)
GI50 (COLO 205): 39.4 µM (inactive)
GI50 (KM12): 38.2 µM (inactive)
GI50 (RXF 393): 86.7 µM (inactive)
GI50 (SF-268): 46.7 µM (inactive)
GI50 (LOX IMVI): 33.3 µM (inactive)
